Source: US5382579A, “Triazolo-1,4-diazepine derivatives and their use in pharmaceuticals” (Eisai Co., Ltd., priority 1988, dated 1995)

Each compound was assayed against T1, PAF receptor (Homo sapiens, UniProt P25105) (assay: PAF Receptor Binding Assay to the Human Platelet (3H-PAF)). Conditions: PAF receptor binding assay IC50, human platelets, 3H-PAF 0.6-1 nM, 37° C., pH 7.0.
T1 construct: Platelets are obtained from healthy men according to the usual method; endogenous in cells; host or cells: platelets from healthy men
T1 sequence (P25105 whole entry): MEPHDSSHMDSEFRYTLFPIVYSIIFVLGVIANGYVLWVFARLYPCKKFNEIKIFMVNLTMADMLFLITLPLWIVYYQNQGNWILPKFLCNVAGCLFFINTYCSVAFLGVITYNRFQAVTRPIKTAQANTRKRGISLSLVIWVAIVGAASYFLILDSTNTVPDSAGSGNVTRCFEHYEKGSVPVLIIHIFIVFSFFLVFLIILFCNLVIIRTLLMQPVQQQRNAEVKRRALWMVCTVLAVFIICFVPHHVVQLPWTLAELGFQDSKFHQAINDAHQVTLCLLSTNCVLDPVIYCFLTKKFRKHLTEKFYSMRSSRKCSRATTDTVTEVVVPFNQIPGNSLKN
Protocol: Platelets are obtained from healthy men according to the usual method and suspended at a concentration of 10^8 platelets/460 μl in a binding buffer (10 mM phosphate-buffers saline (pH 7.0), with 0.1% (w/V) BSA and 0.9 mM CaCl2). Platelets (10^8) in 460 μl of the buffer were added to polypropylene tubes and preincubated with test compounds (20 μl), after vortexing, for 6 min at 37° C. Subsequently, 20 μl of a binding buffer solution of ^3 H-PAF (final ^3 H-PAF concentration 0.6-1 nM) was added to the tubes, which were incubated for 6 minutes. The binding reaction was stopped by adding of 3 ml of an ice-cold washing solution (saline containing 0.1% (w/v) BSA). Platelets were isolated by vacuum filtration on glass filters (Whatman GF/C). After drying the glass filter, radioactivity on the glass filter was measured in scintilator with a liquid scintillation counter.
The inhibition percent is calculated according to the following equation and the value of IC is determined by interpolation from the figure. [formula] binding: radioactivity of binding in the absence of cold PAF or test compounds
non-specific binding: radioactivity of binding in the presence of 10^-5 M PAF
non-specific binding: radioactivity (dpm) after the incubation with 10^-5 M of cold PAF.
For `Cc1nnc2n1-c1sc3c(c1C(c1ccccc1Cl)=NC2)CCN(C(=O)OC(C)(C)C#N)C3`, the IC50 was 3.3 nM.
Work on `Cc1nnc2n1-c1sc3c(c1C(c1ccccc1Cl)=NC2)CCN(C(=O)C1CCC1)C3` yielded an IC50 of 1.8 nM.
In the case of `Cc1nnc2n1-c1sc3c(c1C(c1ccccc1Cl)=NC2)CCN(C(=O)C#Cc1ccccc1)C3`, the IC50 is reported as 0.56 nM.
In the case of `C#CCCCCOC(=O)N1CCc2c(sc3c2C(c2ccccc2Cl)=NCc2nnc(C)n2-3)C1`, the IC50 is reported as 0.22 nM.
`CCC#CCOC(=O)N1CCc2c(sc3c2C(c2ccccc2Cl)=NCc2nnc(C)n2-3)C1` was tested, and the IC50 was 0.74 nM.
`Cc1nnc2n1-c1sc3c(c1C(c1ccccc1Cl)=NC2C)CCN(C(=O)C1CC1)C3` (single isomer, unassigned) [drawing 94] showed an IC50 of 420 nM.
In the case of `Cc1nnc2n1-c1sc3c(c1C(c1ccccc1Cl)=NC2C)CCN(C(=O)C1CC1)C3` (single isomer, unassigned) [drawing 95], the IC50 is reported as 2.8 nM.
Work on `Cc1nnc2n1-c1sc3c(c1C(c1ccccc1Cl)=NC2)CCN(C(=O)OCCCC#N)C3` [drawing 82] yielded an IC50 of 2.7 nM.
For `C#CCCOC(=O)N1CCc2c(sc3c2C(c2ccccc2Cl)=NCc2nnc(C)n2-3)C1` [drawing 83], the IC50 was 3.5 nM.
In the case of `Cc1nnc2n1-c1sc3c(c1C(c1ccccc1Cl)=NC2)CCN(C(=O)OCCCC#N)C3` [drawing 89], the IC50 is reported as 4.4 nM.

Same assay, conditions: human platelets, 3H-PAF 0.6-1 nM, 37° C., pH 7.0; read-out: PAF receptor binding assay IC50
`Cc1nnc2n1-c1sc3c(c1C(c1ccccc1Cl)=NC2C)CCN(C(=O)OC(C)(C)C#N)C3` (single isomer, unassigned) [drawing 90] was tested, and the IC50 was 500 nM.
Compound `Cc1nnc2n1-c1sc3c(c1C(c1ccccc1Cl)=NC2C)CCN(C(=O)OC(C)(C)C#N)C3` (single isomer, unassigned) [drawing 91] has an IC50 of 3.1 nM.
Work on `C#CCCOC(=O)N1CCc2c(sc3c2C(c2ccccc2Cl)=NC(C)c2nnc(C)n2-3)C1` (single isomer, unassigned) [drawing 92] yielded an IC50 of 82 nM.
`C#CCCOC(=O)N1CCc2c(sc3c2C(c2ccccc2Cl)=NC(C)c2nnc(C)n2-3)C1` (single isomer, unassigned) [drawing 93] gave an IC50 of 0.34 nM.
With `C#CCCOC(=O)N1CCc2c(sc3c2C(c2ccccc2Cl)=NCc2nnc(C)n2-3)C1` [drawing 88] the IC50 was 1.5 nM.
